For 67 molecules, melting point results are on record in US20080269202A1, “Novel 2,3-benzodiazepine derivatives and their use as antipsychotic agents” (Teva Pharmaceutical Industries Ltd., priority 2007, published 2008).

For `COc1cc2c(cc1OC)C(c1ccc(N)cc1)=NN(c1nnc(C)s1)C(C)C2` (racemic) [Example 145], the melting point was in the range of 220 to 222 °C. In the case of `COc1cc2c(cc1OC)C(c1ccc(Cl)cc1)=NN(c1nncs1)C(C)C2` (stereo not shown) [Example 24] it was 203 to 204 °C; in that of `CCNC(=O)N1N=C(c2ccc([N+](=O)[O-])cc2)c2cc(OC)c(OC)cc2CC1C` (stereo not shown) [79], 186 to 189 °C. Consider `COc1cc2c(cc1OC)C(c1ccc(N)cc1)=NN(c1ncon1)C(C)C2` (racemic) [Example 155], for which the melting point was 227 to 229 °C. On to `COc1cc2c(cc1OC)C(c1ccc(N)cc1)=NN(c1nncs1)[C@H](C)C2` [Example 108], for which the melting point fell in the range of 159 to 160 °C. As for `COc1cc2c(cc1OC)C(c1ccc(N)cc1)=NN(c1ncc(C)s1)C(C)C2` (racemic) [Example 138], the figure is 120 to 122 °C; as for `COc1cc2c(cc1OC)C(c1ccc([N+](=O)[O-])cc1)=NN(c1noc(C)n1)C(C)C2` (stereo not shown) [Example 48], 197 to 199 °C. As for `COc1cc2c(cc1OC)C(c1ccc(N)cc1)=NN(C1=NOCS1)[C@@H](C)C2` [Example 119], the figure is 134 to 135 °C; as for `CCOc1cc2c(cc1OCC)C(c1ccc([N+](=O)[O-])cc1)=NN(c1ncon1)C(C)C2` (stereo not shown) [Example 52], 158 to 162 °C; as for `CCNC(=O)N1N=C(c2ccc(N)cc2)c2cc(OC)c(OC)cc2CC1C` (racemic), 169 to 170 °C. In turn, `CCOc1cc2c(cc1OCC)C(c1ccc([N+](=O)[O-])cc1)=NN(C(=O)NC)C(C)C2` (stereo not shown) [Example 93] came in with a melting point of 188 to 189 °C. Turning to `CNC(=O)Nc1ccc(C2=NN(c3nncs3)C(C)Cc3cc(OC)c(OC)cc32)cc1` (stereo not shown) [Example 191], the melting point lay within 160 to 162 °C. Molecule `CNC(=O)N1N=C(c2cccc(N)c2)c2cc(OC)c(OC)cc2CC1C` (racemic) came in with a melting point of 103 to 108 °C. As for `COc1cc2c(cc1OC)C(c1ccc(N)cc1)=NN(C(=O)NC(C)C)C(C)C2` (racemic), the figure is 109 to 111 °C; as for `COc1cc2c(cc1OC)C(c1ccc([N+](=O)[O-])c(Cl)c1)=NN(c1ncon1)C(C)C2` (stereo not shown) [Example 45], 227 to 230 °C; as for `COc1cc2c(cc1OC)C(c1ccc([N+](=O)[O-])c(Cl)c1)=NN(c1nccs1)C(C)C2` (stereo not shown) [Example 5], 168 to 169 °C.

In turn, `CNC(=O)N1N=C(c2ccc([N+](=O)[O-])c(Cl)c2)c2cc(OC)c(OC)cc2CC1C` (stereo not shown) [76] yielded a melting point of 195 to 197 °C. In turn, `COc1cc2c(cc1OC)C(c1ccc(N)cc1)=NN(c1nc(=O)n(C)s1)C(C)C2` (racemic) [Example 152] registered a melting point of 260 to 262 °C. `CNC(=O)N1N=C(c2cccc(Cl)c2)c2cc(OC)c(OC)cc2CC1C` (stereo not shown) had a melting point of 90 to 91 °C.

As to `COc1cc2c(cc1OC)C(c1ccc(N)cc1)=NN(c1nc(C)n(C)n1)C(C)C2` (racemic) [Example 166], the melting point fell in the range of 243 to 246 °C.

As to `COc1cc2c(cc1OC)C(c1cccc(Cl)c1)=NN(c1nccs1)C(C)C2` (stereo not shown) [Example 10], the melting point fell in the range of 125 to 126 °C. With `CNC(=O)N1N=C(c2ccccc2[N+](=O)[O-])c2cc(OC)c(OC)cc2CC1C` (stereo not shown), the melting point was in the range of 174 to 176 °C.

`COc1cc2c(cc1OC)C(c1ccc(N)c(C)c1)=NN(C(=O)NC1CC1)[C@H](C)C2` showed a melting point of 112 to 114 °C.

In the case of `COc1cc2c(cc1OC)C(c1ccccc1)=NN(C1=NOCS1)C(C)C2` (stereo not shown) [Example 37], the melting point lay within 170 to 173 °C. As for `COc1cc2c(cc1OC)C(c1ccc(N)cc1)=NN(C(=O)N(C)C)[C@H](C)C2`, the figure is 258 to 260 °C; as for `COc1cc2c(cc1OC)C(c1ccc(N)c(Cl)c1)=NN(C1=NCCS1)[C@H](C)C2` [Example 116], 232 to 234 °C; as for `COc1cc2c(cc1OC)C(c1ccc(N)cc1)=NN(c1ncn(C)n1)C(C)C2` (racemic) [Example 165], 203 to 205 °C. As to `COc1cc2c(cc1OC)C(c1ccc([N+](=O)[O-])c(C)c1)=NN(c1nncs1)C(C)C2` (stereo not shown) [Example 20], the melting point fell in the range of 192 to 195 °C.

Turning to `COc1cc2c(cc1OC)C(c1ccc(N)cc1)=NN(C1=NNC(=O)CS1)C(C)C2` (racemic) [Example 154], the melting point lay within 159 to 163 °C. Molecule `COc1cc2c(cc1OC)C(c1ccc(N)cc1)=NN(c1ncc(C)o1)C(C)C2` (racemic) [Example 161] displayed a melting point of 103 to 107 °C. `CCNC(=O)N1N=C(c2ccc([N+](=O)[O-])cc2)c2cc(OC)c(OC)cc2CC1C` (stereo not shown) [78] came in with a melting point of 206 to 208 °C. Take `COc1cc2c(cc1OC)C(c1ccc([N+](=O)[O-])cc1)=NN(c1nccs1)C(C)C2` (stereo not shown) [Example 1]: the melting point was 195 to 197 °C. As for `CNC(=O)N1N=C(c2ccccc2N)c2cc(OC)c(OC)cc2CC1C` (racemic), the figure is 88 to 91 °C; as for `COc1cc2c(cc1OC)C(c1ccc(N)cc1)=NN(c1nncs1)C(C)C2` (racemic) [Example 144], 152 to 153 °C. In turn, `COc1cc2c(cc1OC)C(c1ccc(N)cc1)=NN(C1=NCCS1)C(C)C2` (racemic) [Example 141] yielded a melting point of 121 to 123 °C. `COc1cc2c(cc1OC)C(c1ccc(N)cc1)=NN(c1noc(C)n1)C(C)C2` (racemic) [Example 156]: the melting point lay in the range of 233 to 236 °C. As for `CCOc1cc2c(cc1OCC)C(c1ccc(N)cc1)=NN(c1nncs1)C(C)C2` (racemic) [Example 149], the figure is 108 to 113 °C. Take `COc1cc2c(cc1OC)C(c1ccc(NC(C)=O)c(C)c1)=NN(c1nccs1)[C@H](C)C2` [Example 185]: the melting point is 229 to 231 °C.

In turn, `COc1cc2c(cc1OC)C(c1ccc(N)c(C)c1)=NN(c1noc(C)n1)[C@H](C)C2` [Example 106] had a melting point of 105 to 108 °C.

For the molecule `COc1cc2c(cc1OC)C(c1ccc(N)cc1)=NN(c1ncon1)[C@H](C)C2` [Example 103], the melting point lay in the range of 239 to 242 °C. As for `CONC(=O)N1N=C(c2ccc(N)cc2)c2cc(OC)c(OC)cc2CC1C` (racemic) [Example 179], the figure is 173 to 174 °C.

In turn, `COc1cc2c(cc1OC)C(c1cccc(Cl)c1)=NN(c1nncs1)C(C)C2` (stereo not shown) [Example 23] yielded a melting point of 86 to 88 °C.

In turn, `COc1cc2c(cc1OC)C(c1ccc(N)cc1)=NN(c1nc(C)n[nH]1)C(C)C2` (racemic) [Example 163] gave a melting point of 164 to 167 °C. For the molecule `COc1cc2c(cc1OC)C(c1ccc(N)c(Cl)c1)=NN(c1nccs1)[C@H](C)C2` [Example 115], the melting point lay in the range of 116 to 117 °C. Regarding `COc1cc2c(cc1OC)C(c1ccc(N)cc1)=NN(C(=O)NC1CC1)[C@H](C)C2`, the melting point fell in the range of 116 to 119 °C. As for `COc1cc2c(cc1OC)C(c1ccc(N)c(C)c1)=NN(c1nncs1)C(C)C2` (racemic) [Example 147], the figure is 108 to 110 °C; as for `COc1cc2c(cc1OC)C(c1ccc(N)c(C)c1)=NN(C(=O)NC(C)C)[C@H](C)C2`, 115 to 117 °C.

With `COc1cc2c(cc1OC)C(c1ccc(N)cc1)=NN(C(=O)N1CCOCC1)C(C)C2` (racemic) [Example 177], the melting point was 124 to 127 °C. In turn, `COc1cc2c(cc1OC)C(c1ccc([N+](=O)[O-])c(C)c1)=NN(c1nccs1)C(C)C2` (stereo not shown) [Example 3] displayed a melting point of 145 to 147 °C. In the case of `COc1cc2c(cc1OC)C(c1ccc([N+](=O)[O-])cc1)=NN(c1nc(C)c(C)s1)C(C)C2` (stereo not shown) [Example 9] it was 190 to 192 °C. `CNC(=O)N1N=C(c2ccc(N)cc2)c2cc(OC)c(OC)cc2CC1C` (racemic): the melting point was in the range of 105 to 107 °C.

In turn, `COc1cc2c(cc1OC)C(c1ccc(NC(C)=O)cc1)=NN(c1nncs1)C(C)C2` (stereo not shown) [Example 187] showed a melting point of 150 to 151 °C. `COc1cc2c(cc1OC)C(c1ccc([N+](=O)[O-])cc1)=NN(c1nccs1)C(C)C2` (stereo not shown) [Example 2] displayed a melting point of 151 to 152 °C. In the case of `COc1cc2c(cc1OC)C(c1ccc(F)cc1)=NN(C1=NOCS1)C(C)C2` (stereo not shown) [Example 36] it was 186 to 191 °C; in that of `CCCNC(=O)N1N=C(c2ccc(N)cc2)c2cc(OC)c(OC)cc2C[C@H]1C`, 101 to 104 °C; in that of `COc1cc2c(cc1OC)C(c1ccc([N+](=O)[O-])c(C)c1)=NN(c1noc(C)n1)C(C)C2` (stereo not shown) [Example 47], 206 to 208 °C.

The molecule `COc1cc2c(cc1OC)C(c1ccc(N)c(C)c1)=NN(c1ncon1)[C@@H](C)C2` [Example 105] yielded a melting point of 136 to 138 °C.

As for `CONC(=O)N1N=C(c2ccc(N)cc2)c2cc(OC)c(OC)cc2C[C@H]1C` [Example 135], the melting point fell in the range of 143 to 145 °C.

`COc1cc2c(cc1OC)C(c1ccc(Cl)cc1)=NN(c1ncon1)C(C)C2` (stereo not shown) [Example 49] gave a melting point of 210 to 212 °C. For `COc1cc2c(cc1OC)C(c1ccc([N+](=O)[O-])c(Cl)c1)=NN(c1nncs1)C(C)C2` (stereo not shown) [Example 22], the melting point is 203 to 206 °C.

Take `COc1cc2c(cc1OC)C(c1ccc(N)cc1)=NN(c1nc(C)cs1)C(C)C2` (racemic) [Example 137]: the melting point was 122 to 124 °C. In the case of `COc1cc2c(cc1OC)C(c1ccc(N)cc1)=NN(c1nc(C)c(C)s1)C(C)C2` (racemic) [Example 139] it was 121 to 124 °C; in that of `COc1cc2c(cc1OC)C(c1ccc(F)cc1)=NN(c1ncon1)C(C)C2` (stereo not shown) [Example 50], 217 to 220 °C; in that of `CCc1nnc(N2N=C(c3ccc(N)cc3)c3cc(OC)c(OC)cc3CC2C)s1` (racemic) [Example 146], 208 to 209 °C. As for `COc1ccc(C2=NN(c3nncs3)C(C)Cc3cc(OC)c(OC)cc32)cc1OC` (stereo not shown) [Example 25], the figure is 173 to 174 °C.

The molecule `COc1cc2c(cc1OC)C(c1ccc(N)cc1)=NN(c1nnc(C)o1)C(C)C2` (racemic) [Example 151] gave a melting point of 209 to 211 °C. As for `CCNC(=O)N1N=C(c2ccc(N)cc2)c2cc(OC)c(OC)cc2C[C@H]1C`, the figure is 122 to 124 °C.
